The record followed here is US20130165396A1, “Apple Skin Extracts for Treating Cardiovascular Disease” (NATIONAL RESEARCH COUNCIL OF CANADA, priority 2010, published 2013).

Marks after values point to notes of the source that are not given here.

In assay [1] the test system is LDL isolated from human plasma. Nature of the assay: TBARS assay, AAPH-induced LDL oxidation. The class given is biochemical. Here is the method: (§1) To remove the inherent antioxidants, purchased LDL was dialyzed using Fisherbrand cellulose dialysis tubing (type T3 membrane, Thermo Fisher Scientific Inc., Ottawa, ON, Canada) against PBS containing 0.138 M NaCl and 0.0027 M KCl (pH 7.4, at 25° C.) at 4° C. for 24 hours. The buffer was changed every six hours. The dialyzed LDL was immediately used or stored at −80° C. in the dark under nitrogen and used within two to three weeks. Protein content of the dialyzed LDL was measured by the Lowry's method (Lowry et al., J. Biol. Chem., 1951, 193: […]) using bovine serum albumin as the standard.
(§2) Two oxidation induction methods were used: copper sulfate and 2,2′-azobis(2-methylpropionamidine)dihydrochloride (AAPH). For both induction systems, 100 μg/mL of final LDL protein concentration was used. LDL was oxidized at the presence of 10 μM final concentration of Cu^2+and 5 mM final concentration of AAPH separately at 37° C. for 4 h in the dark. […] Oxidation was terminated by adding a 1:1 mixture of 1 mM solution of ethylenediaminetetraacetic acid (EDTA) and 1 mM solution of butylated hydroxytoluene (BHT).
(§3) Two main constituents of TAE and oleanolic acid, which is an isomer of ursolic acid, were also used to investigate the concentration-responsiveness. The same concentrations of Cu^2+ and AAPH were used and the oxidation was terminated by a 1:1 mixture of EDTA and BHT as explained earlier under this section.
(§4) TBARS were measured according to the method of Xu et al., J. Food Sci., 2007, 72: S522-S527 with slight modifications. […] The mixture was incubated at 95° C. for 30 min to develop a pink chromogen. After cooling to room temperature tubes were centrifuged at 1500 g for 15 min and the fluorescence was measured using the FLUOstar OPTIMA plate reader (BMG Labtech Inc. Canada). Excitation and emission wavelengths used were 532 and 590 nm, respectively. TBARS activity was expressed as the percent inhibition (Equation 1) of LDL oxidation with comparison to the positive control, where F is fluorescence:
(§5) Percent inhibition (%)=100(Fpositive control−Fsample)/(Fpositive control) (1)

For assay [2], the system named is LDL isolated from human plasma. Kind of assay: TBARS assay, Cu2+-induced LDL oxidation. The assay is classed as biochemical. Here is the method: as §1, §2, §3, §4, §5
[3] abbreviates: 50 mg L^−1, comparison of constituent compounds and metabolites (Table 4).

Take `C[C@H]1[C@H](C)CC[C@]2(C(=O)O)CC[C@]3(C)C(=CC[C@@H]4[C@@]5(C)C[C@@H](O)[C@H](O)C(C)(C)[C@@H]5CC[C@]43C)[C@H]12` [Corosolic acid]: the “Percent inhibition of secondary LDL oxidation products, AAPH induction” value (shortened to “Percent inhibition … AAPH induction”) in assay [1] (1 mg L^−1) is listed as 6.09 ± 1.83^d %; in assay [1] (10 mg L^−1), 5.69 ± 1.46^d %; in assay [1] (50 mg L^−1), 32.80 ± 5.49^bc %; in assay [1] (100 mg L^−1), 29.84 ± 2.89^c %; in assay [1] (200 mg L^−1), 45.49 ± 3.46^ab %; in assay [1] (300 mg L^−1), 47.55 ± 1.17^a %. Moreover, the “Percent inhibition … AAPH induction” value is 51.18 ± 1.73^a % in assay [1] (400 mg L^−1) and 46.63 ± 3.91^a % in assay [1] (500 mg L^−1). Besides, the “AAPH-induced LDL oxidation inhibition” value in assay [1] (greater than 200 mg L^−1) is reported as “more than 40%”. In addition, the “Protection against Cu2+-induced LDL oxidation (statement)” value in assay [2] is reported as “did not show any protection”. The “Percent inhibition of secondary LDL oxidation products, Cu induction” value (shortened to “Percent inhibition … Cu induction”) in assay [2] (1 mg L^−1) was −17.84 ± 5.15^ab %; in assay [2] (10 mg L^−1), 3.17 ± 4.20^a %; in assay [2] (50 mg L^−1), −6.04 ± 3.62^ab %; in assay [2] (100 mg L^−1), −24.94 ± 2.90^be %; in assay [2] (200 mg L^−1) it was −54.17 ± 5.21^d %; in assay [2] (300 mg L^−1), −49.93 ± 3.74^d %. Further, the “Percent inhibition … Cu induction” value in assay [2] (400 mg L^−1) is recorded as −39.57 ± 3.91^cd %; in assay [2] (500 mg L^−1) it was −0.50 ± 5.98^a %.
As to `O=C(/C=C/c1ccc(O)c(O)c1)O[C@@H]1C[C@](O)(C(=O)O)C[C@@H](O)[C@H]1O` [Chlorogenic acid], the “Percent inhibition … AAPH induction” value in assay [1] (setting [3]) is given as 100.18 ± 3.29^b %. The “Percent inhibition … Cu induction” value in assay [2] (setting [3]) is recorded as 126.30 ± 1.45^a %.
On to `OC[C@H]1O[C@@H](Oc2cc3c(O)cc(O)cc3[o+]c2-c2ccc(O)c(O)c2)[C@H](O)[C@@H](O)[C@H]1O` [Cyanidin-3-O-galactoside], for which the “Percent inhibition … AAPH induction” value in assay [1] (setting [3]) is listed as 70.43 ± 1.23^d %. For the same compound, the “Cu2+-induced LDL oxidation (statement)” value in assay [2] (50 mg L^−1) is given as “promising results”. For the same compound, in assay [2] (setting [3]), the “Percent inhibition … Cu induction” value is 104.31 ± 2.25^ab %.
For the compound `CC1(C)CC[C@]2(C(=O)O)CC[C@]3(C)C(=CC[C@@H]4[C@@]5(C)CC[C@H](O)C(C)(C)[C@@H]5CC[C@]43C)[C@@H]2C1` [Oleanolic acid], the “Percent inhibition … AAPH induction” value is listed as 17.57 ± 8.28^b % in assay [1] (1 mg L^−1); 31.90 ± 0.95^ab % in assay [1] (10 mg L^−1); 37.43 ± 1.98^a % in assay [1] (50 mg L^−1); 30.69 ± 3.22^ab % in assay [1] (100 mg L^−1); 16.75 ± 4.41^b % in assay [1] (200 mg L^−1); 26.13 ± 3.09^ab % in assay [1] (300 mg L^−1). The “Percent inhibition … AAPH induction” value was 26.20 ± 4.41^ab % in assay [1] (400 mg L^−1) and 29.17 ± 1.58^ab % in assay [1] (500 mg L^−1). In assay [1] (10-100 mg L^−1), the “Protection for AAPH-induced LDL oxidation” value was “around 30%”. For the same compound, the “Percent inhibition … Cu induction” value is given as 12.06 ± 2.46^a % in assay [2] (1 mg L^−1); −3.01 ± 3.42^ab % in assay [2] (10 mg L^−1); 12.30 ± 2.73^a % in assay [2] (50 mg L^−1); −13.37 ± 5.59^b % in assay [2] (100 mg L^−1); −47.00 ± 3.05^c % in assay [2] (200 mg L^−1); −94.49 ± 4.34^d % in assay [2] (300 mg L^−1). Moreover, the “Percent inhibition … Cu induction” value in assay [2] (400 mg L^−1) is reported as −74.73 ± 5.82^d %; in assay [2] (500 mg L^−1) it was −78.32 ± 4.31^d %.
With `COc1cc(-c2oc3cc(O)cc(O)c3c(=O)c2OC2OC(C(=O)O)C(O)C(O)C2O)ccc1O` (stereo not drawn) [Isorhamnetin-3-glucuronic acid], the “Percent inhibition … AAPH induction” value in assay [1] (setting [3]) is given as 51.79 ± 1.27^e %. Further, the “Percent inhibition … Cu induction” value in assay [2] (setting [3]) was 20.28 ± 1.49^e %.
With `O=c1c(O[C@@H]2O[C@H](CO)[C@@H](O)[C@H](O)[C@H]2O)c(-c2ccc(O)c(O)c2)oc2cc(O)cc(O)c12` [Quercetin-3-O-glucoside], in assay [1] (setting [3]), the “Percent inhibition … AAPH induction” value is recorded as 138.25 ± 1.97^a %. Also, in assay [2] (setting [3]), the “Percent inhibition … Cu induction” value is on record as 104.13 ± 0.48^ab %.
As for `C[C@H]1[C@H](C)CC[C@]2(C(=O)O)CC[C@]3(C)C(=CC[C@@H]4[C@@]5(C)CC[C@H](O)C(C)(C)[C@@H]5CC[C@]43C)[C@H]12` [Ursolic acid], the “Concentration giving a greater protection against AAPH-induced LDL oxidation” value in assay [1] is 300 mg/L. For the same compound, in assay [1], the “Inhibiting peroxyl-radical-induced LDL oxidation compared to corosolic and oleanolic acids (statement)” value was “more effective”. The “Percent inhibition … AAPH induction” value in assay [1] (1 mg L^−1) is −16.71 ± 1.72^d %; in assay [1] (10 mg L^−1), −16.51 ± 2.32^d %; in assay [1] (50 mg L^−1), 24.25 ± 2.54^c %; in assay [1] (100 mg L^−1), 54.07 ± 2.88^b %; in assay [1] (200 mg L^−1), 49.91 ± 3.26^b %; in assay [1] (300 mg L^−1) it was 71.45 ± 5.14^a %. Moreover, the “Percent inhibition … AAPH induction” value in assay [1] (400 mg L^−1) is listed as 54.20 ± 2.50^b %; in assay [1] (500 mg L^−1), 46.52 ± 2.39^b %. In addition, the “Protection for AAPH-induced LDL oxidation” value in assay [1] (beyond 100 mg L^−1) is listed as “more than 40%”. In addition, the “Protection against Cu2+-induced LDL oxidation (statement)” value in assay [2] was “a certain degree of protection”. The “Percent inhibition … Cu induction” value in assay [2] (1 mg L^−1) is 7.10 ± 1.52^c %; in assay [2] (10 mg L^−1) it was −5.10 ± 0.69^d %; in assay [2] (50 mg L^−1), 19.08 ± 2.59^c %; in assay [2] (100 mg L^−1), 16.73 ± 1.49^c %; in assay [2] (200 mg L^−1) it was 36.62 ± 5.69^a %; in assay [2] (300 mg L^−1), 34.93 ± 5.08^ab %. The “Percent inhibition … Cu induction” value in assay [2] (400 mg L^−1) was 42.45 ± 1.02^a %; in assay [2] (500 mg L^−1), 39.63 ± 3.85^a %.
As for `O=c1c(O)c(-c2ccc(O)c(OS(=O)(=O)O)c2)oc2cc(O)cc(O)c12` [Quercetin-3′-sulfate], the “Percent inhibition … AAPH induction” value in assay [1] (setting [3]) is on record as 59.63 ± 1.90^e %. In addition, the “Percent inhibition … Cu induction” value in assay [2] (setting [3]) is given as 38.11 ± 1.84^de %.
